Test system: splenic B cells
Experiment: Proliferation of B cells in vitro (anti-CD40 and anti-IgM stimulated)
Type: cell-based, mouse
Description: Adult wild type mice (C57B16) were sacrificed and spleens were rapidly removed. After dissociation into single cell suspension and red blood cell lysis with NH4Cl, splenocytes were isolated by centrifugation over a Ficoll gradient. Subsequently, B lymphocytes were purified by one of two methods, complement mediated lysis or CD43 negative selection. For complement lysis, cells were incubated with anti-Thy 1 antibody (J1J), anti-L3T4 (GK 1.5), anti-Ly2 (TIB105, ATCC) and rabbit complement (Sigma) for two hours at 37°. CD43 negative selection was carried out using anti-CD43 (Serotec) and Miltenyi microbeads according to the manufacturer's instructions. Cells were cultured in RPMI 1640, 10% fetal calf serum for three days in the presence of anti-CD40 (mAb 1C10, generous gift of Hsiou-Chi Liou, Weill Medical College of Cornell University) and anti-IgM Fab′2 fragments (Jackson Immunoresearch). FGF1 (100 ng/ml) and Heparin (10 ug/ml) were added, and the number of cells was determined in triplicate compared to Heparin alone using a Coulter Counter (Coulter) or trypan blue exclusion with the same results. […]
FGF signaling inhibits splenic B cell proliferation. […] The values represent the percent decrease in total cell number observed with addition of 100 ng/ml FGF1 (determined in triplicate) as compared to heparin (10 ug/ml) alone. x=mean+/− s.e.m. […]

With “FGF1: fibroblast growth factor ligand added exogenously to B cells; stimulates the widest range of FGF receptors” the “% Decrease in total cell number, mean +/- s.e.m.” value (mean of 6 experiments, 100 ng/ml FGF1 plus heparin vs heparin alone, 3 days, one sample t test p<0.01) was 19.7 +/− 2.8% and the B cell number (purified spleen B cells with CD40 and BCR signaling activated, incubated in the presence of FGF-1) was “inhibited”.

From patent US9884116B2, “FGF modulation of in vivo antibody production and humoral immunity” (priority 2010, dated 2018)
